Results: ChEMBL document CHEMBL6109106, “Rational design, synthesis and anti-inflammatory activity of 6-substituted dihydrobenzophenanthridine derivatives” (Bioorg Med Chem, 2025)
Calls of active or inactive are those of the source. No cut-off for these calls is given here.

How the values were obtained:
RAW264.7 [1] = assay: Anti-inflammatory activity in LPS-induced mouse RAW264.7 cells assessed as NO emission at 20 uM preincubated with compound for 1 hrs followed by LPS stimulation and measured after 24 hrs by Griess reagent based analysis (reference value: 14.05 +/- 1.19 microM); assay type: functional; settings: time 25 hrs
RAW264.7 [2] = assay: Anti-inflammatory activity in LPS-induced mouse RAW264.7 cells assessed as inhibition of NO release at 20 uM preincubated with compound for 1 hrs followed by LPS stimulation and measured after 24 hrs by Griess reagent based analysis (reference value: 0 %); assay type: functional; settings: for inhibition at 20 µM: Mus musculus, RAW264.7, 25 h
[3] = Cytotoxicity against mouse RAW264.7 cells assessed as survival rate at 20 uM incubated for 24 hrs by MTT assay (reference value: 100 %); assay type: toxicity, cell-based; settings: RAW264.7 cells, read-out: Survival
Mus musculus [4] = assay: Anti-inflammatory activity in DSS-induced acute colitis male C57BL/6 mouse model assessed as decrease in IL6 expression level in colon at 20 to 80 mg/kg, po administered for 7 days by immunohistochemical staining based analysis; assay type: functional, organism-based; settings: dose 20-80 mg/kg, time 7.0 day
RAW264.7 [5] = assay: Anti-inflammatory activity in LPS-induced mouse RAW264.7 cells assessed as reduction in TNFalpha level preincubated with compound for 1 hrs followed by LPS stimulation and measured after 24 hrs by ELISA; assay type: functional, cell-based; settings: dose 10-160 µM, time 25.0 hrs
RAW264.7 [6] = assay: Cytotoxicity against mouse RAW264.7 cells assessed as reduction in cell viability up to 160 uM incubated for 24 hrs by MTT assay; assay type: toxicity, cell-based; settings: raw264.7, 24 h
RAW264.7 [7] = assay: Anti-inflammatory activity in LPS-induced mouse RAW264.7 cells assessed as reduction in IL-6 level preincubated with compound for 1 hrs followed by LPS stimulation and measured after 24 hrs by ELISA; assay type: functional, cell-based; settings: dose 10-160 µM, time 25.0 hrs
Mus musculus [8] = assay: Anti-inflammatory activity in DSS-induced acute colitis male C57BL/6 mouse model assessed as increase in intestine length at 20 to 80 mg/kg, po administered for 7 days; assay type: functional, organism-based; settings: dose 20-80 mg/kg, time 7.0 day
Mus musculus [9] = assay: Anti-inflammatory activity in DSS-induced acute colitis male C57BL/6 mouse model assessed as decrease in TNF-alpha expression level in colon at 20 to 80 mg/kg, po administered for 7 days by immunohistochemical staining based analysis; assay type: functional, organism-based; settings: dose 20-80 mg/kg, time 7.0 day
RAW264.7 [10] = assay: Anti-inflammatory activity in LPS-induced mouse RAW264.7 cells assessed as reduction in TNFalpha level at >20 uM preincubated with compound for 1 hrs followed by LPS stimulation and measured after 24 hrs by ELISA; assay type: functional, cell-based; settings: time 25.0 hrs
Mus musculus [11] = assay: Anti-inflammatory activity in DSS-induced acute colitis male C57BL/6 mouse model assessed as decrease in IL1beta expression level in colon at 20 to 80 mg/kg, po administered for 7 days by immunohistochemical staining based analysis; assay type: functional, organism-based; settings: dose 20-80 mg/kg, time 7.0 day
Mus musculus [12] = assay: Anti-inflammatory activity in DSS-induced acute colitis male C57BL/6 mouse model assessed as reduction in infiltration of inflammatory cells in colon administered orally for 7 days by H and E staining based analysis; assay type: functional, organism-based; settings: dose 20-80 mg/kg, route po, time 7.0 day
Mus musculus [13] = assay: Anti-inflammatory activity in DSS-induced acute colitis male C57BL/6 mouse model assessed as complete colonic mucosa with crypts administered orally for 7 days by H and E staining based analysis; assay type: functional, organism-based; settings: dose 20-80 mg/kg, route po, time 7.0 day
RAW264.7 [14] = assay: Anti-inflammatory activity in LPS-induced mouse RAW264.7 cells assessed as reduction in IL-6 level at >40 uM preincubated with compound for 1 hrs followed by LPS stimulation and measured after 24 hrs by ELISA; assay type: functional, cell-based; settings: time 25.0 hrs

SMILES | Activity (RAW264.7 [1]) [µM] | inhibition at 20 µM (RAW264.7 [2]) [%] | viability at 24 h, 20 µM [3] [%] | further results
CCCCNC(=O)CC1c2c(ccc3c2OCO3)-c2ccc3cc4c(cc3c2N1C)OCO4 (centres undefined) | 10.48 | 24.5 | 101 | –
CN1c2c(ccc3cc4c(cc23)OCO4)-c2ccc3c(c2C1CC(=O)Nc1ccccc1)OCO3 (centres undefined) | 9.28 | 33.1 | 125 | –
COc1ccc2c(c1OC)C(CCO)N(C)c1c-2ccc2cc3c(cc12)OCO3 (centres undefined) | 9.75 | 30.1 | 103 | –
CCCCNC(=O)CC1c2c(ccc(OC)c2OC)-c2ccc3cc4c(cc3c2N1C)OCO4 (centres undefined) | 8.22 | 41.1 | 92.1 | –
COC(=O)CCC1c2c(ccc(OC)c2OC)-c2ccc3cc4c(cc3c2N1C)OCO4 (centres undefined) | 10.11 | 27.5 | 97.7 | –
C=C(CC1c2c(ccc3c2OCO3)-c2ccc3cc4c(cc3c2N1C)OCO4)C(=O)OC (centres undefined) | 12.66 | 9.4 | 111 | –
COc1ccc2c(c1OC)C(CC(=O)[O-])N(C)c1c-2ccc2cc3c(cc12)OCO3.[Na+] (centres undefined) | 12.98 | – | 98.8 | inhibition (INH) (RAW264.7 [2]; time 25 hrs): 6.77%
COc1ccc2c(c1OC)CN(C)c1c-2ccc2cc3c(cc12)OCO3 [DIHYDROCHELERYTHRINE] | 9.91 | 28.9 | 94.3 | –
CN1c2c(ccc3cc4c(cc23)OCO4)-c2ccc3c(c2C1CCO)OCO3 (centres undefined) | 11.57 | 10.1 | 160 | –
CN1c2c(ccc3cc4c(cc23)OCO4)-c2ccc3c(c2C1CC(=O)[O-])OCO3.[Na+] (centres undefined) | 11.66 | 16.1 | 91.8 | –
COc1ccc2c(c1OC)C(CC(=O)Nc1ccccc1)N(C)c1c-2ccc2cc3c(cc12)OCO3 (centres undefined) | 8.16 | 41.6 | 136 | Activity (Mus musculus [4]): Active; Activity (RAW264.7 [5]): Dose-dependent-effect; Activity (RAW264.7 [6]): Non-toxic; Activity (RAW264.7 [7]): Dose-dependent-effect; Activity (Mus musculus [8]): Active; Activity (Mus musculus [9]): Active; Activity (RAW264.7 [10]): Active; Activity (Mus musculus [11]): Active; Activity (Mus musculus [12]): Dose-dependent-effect; Activity (Mus musculus [13]): Dose-dependent-effect; Activity (RAW264.7 [14]): Active
